Test results published in ChEMBL document CHEMBL4219098, “Unprecedented sugar bridged bisindoles selective inhibiting glioma stem cells” (Bioorg Med Chem, 2018).
The source made the active and inactive calls. The calls are words filed in the database; no cut-off is given here.

What was measured:
HEK-293T [1] = assay: Cytotoxicity against human 293T cells assessed as reduction in cell viability after 4 days by MTS assay; assay type: cell-based; conditions: 96 h
[2] = Cytotoxicity against human GSC12 cells assessed as reduction in cell viability after 4 days by MTS assay; assay type: functional, cell-based; conditions: GSC12, 96 h
[3] = Cytotoxicity against human GSC18 cells assessed as reduction in cell viability after 4 days by MTS assay; assay type: functional, cell-based; conditions: GSC18, 96 h
[4] = Cytotoxicity against human HAC cells assessed as reduction in cell viability after 4 days by MTS assay; assay type: cell-based; conditions: 96 h
Homo sapiens [5] = organism: Homo sapiens; assay: Induction of intrinsic apoptosis in human GSC18 cells assessed as increase in bax mRNA levels at 25 uM after 10 days by RT-PCR analysis relative to DMSO; assay type: functional, cell-based
Homo sapiens [6] = organism: Homo sapiens; assay: Induction of apoptosis in human GSC18 cells assessed as increase in calpain1 mRNA levels at 25 uM after 10 days by RT-PCR analysis relative to DMSO; assay type: functional, cell-based
Homo sapiens [7] = organism: Homo sapiens; assay: Cytotoxicity against human GSC12 cells assessed as cell growth inhibition at 25 uM by phenotypic screening-based assay; assay type: functional
Homo sapiens [8] = organism: Homo sapiens; assay: Induction of apoptosis in human GSC18 cells assessed as increase in caspase12 mRNA levels at 25 uM after 10 days by RT-PCR analysis relative to DMSO; assay type: functional, cell-based
Homo sapiens [9] = organism: Homo sapiens; assay: Induction of extrinsic apoptosis in human GSC18 cells assessed as increase in TNFalpha mRNA levels at 25 uM after 10 days by RT-PCR analysis relative to DMSO; assay type: functional, cell-based
Homo sapiens [10] = assay: Antiproliferative activity against human GSC18 cells assessed as decrease in number of clonal spheres at 25 uM administered 2 weeks post clonal sphere formation measured after 10 days by crystal violet-staining based assay; assay type: functional, cell-based
Homo sapiens [11] = assay: Antiproliferative activity against human GSC18 cells assessed as damage to clonal spheres morphology at 25 uM administered 2 weeks post clonal sphere formation measured after 10 days by crystal violet-staining based assay; assay type: functional, cell-based
Homo sapiens [12] = organism: Homo sapiens; assay: Induction of intrinsic apoptosis in human GSC18 cells assessed as increase in apaf1 mRNA levels at 25 uM after 10 days by RT-PCR analysis relative to DMSO; assay type: functional, cell-based
Homo sapiens [13] = organism: Homo sapiens; assay: Induction of extrinsic apoptosis in human GSC18 cells assessed as increase in IL1 mRNA levels at 25 uM after 10 days by RT-PCR analysis relative to DMSO; assay type: functional, cell-based
Homo sapiens [14] = organism: Homo sapiens; assay: Antiproliferative activity against human GSC18 cells assessed as reduction in BrdU-positive proliferating cells at 25 uM after 72 hrs by BrdU incorporation assay relative to DMSO; assay type: functional, cell-based
Homo sapiens [15] = organism: Homo sapiens; assay: Induction of intrinsic apoptosis in human GSC18 cells assessed as increase in bid mRNA levels at 25 uM after 10 days by RT-PCR analysis relative to DMSO; assay type: functional, cell-based
HEK-293T [16] = assay: Cytotoxicity against human 293T cells assessed as cell growth inhibition at 25 uM by phenotypic screening-based assay
Homo sapiens [17] = organism: Homo sapiens; assay: Induction of apoptosis in human GSC18 cells assessed as increase in caspase-3 positive apoptotic cells at 25 uM by immunofluorescence-staining based microscopic analysis; assay type: functional, cell-based
[18] = Cytotoxicity against human HAC cells assessed as cell growth inhibition at 25 uM by phenotypic screening-based assay
Homo sapiens [19] = organism: Homo sapiens; assay: Induction of intrinsic apoptosis in human GSC18 cells assessed as increase in bcl-2 mRNA levels at 25 uM after 10 days by RT-PCR analysis relative to DMSO; assay type: functional, cell-based
Homo sapiens [20] = organism: Homo sapiens; assay: Cytotoxicity against human GSC18 cells assessed as cell growth inhibition at 25 uM by phenotypic screening-based assay; assay type: functional

Row | Compound | IC50 (HEK-293T [1]) [µM] | IC50 [2] [µM] | IC50 [3] [µM] | IC50 [4] [µM] | Activity (Homo sapiens [5]) | Activity (Homo sapiens [6]) | growth inhibition (GI) (Homo sapiens [7]) | Activity (Homo sapiens [8]) | Activity (Homo sapiens [9]) | Activity (Homo sapiens [10]) | Activity (Homo sapiens [11]) | Activity (Homo sapiens [12]) | Activity (Homo sapiens [13]) | Activity (Homo sapiens [14]) | Activity (Homo sapiens [15]) | Activity (HEK-293T [16]) | Activity (Homo sapiens [17]) | Activity [18] | Activity (Homo sapiens [19]) | growth inhibition (GI) (Homo sapiens [20])
1 | CC(=O)O[C@H]1C(=O)[C@@]2(C)[C@H]([C@H](OC(=O)c3ccccc3)[C@]3(O)C[C@H](OC(=O)[C@H](O)[C@@H](NC(=O)c4ccccc4)c4ccccc4)C(C)=C1C3(C)C)[C@]1(OC(C)=O)CO[C@@H]1C[C@@H]2O [PACLITAXEL] | 0.0023 | 12.5 | 10.4 | 0.0121 |  |  |  |  |  |  |  |  |  |  |  |  |  |  |  | 
2 | C=C[C@H]1[C@H](O[C@@H]2O[C@H](CO[C@H]3C[C@@]45c6ccccc6N[C@]4(O3)[C@@H]3C[C@@H](/C(=C/C)C=[N+]3[O-])[C@H]5CC(=O)OC)[C@@H](O)[C@H](O)[C@H]2O)OC=C2C(=O)N3CCc4c([nH]c5ccccc45)[C@@H]3C[C@H]21 | > 90 | 20.7 | 16.1 | > 90 | inactive | inactive | Active | inactive | Active | Active | Active | inactive | Active | Active | inactive | Non-Toxic | Active | Non-Toxic | inactive | Active
3 | C=C[C@H]1[C@H](O[C@@H]2O[C@H](CO[C@H]3C[C@@]45c6ccccc6N[C@]4(O3)[C@@H]3C[C@@H](/C(=C\C)C=[N+]3[O-])[C@H]5CC(=O)OC)[C@@H](O)[C@H](O)[C@H]2O)OC=C2C(=O)N3CCc4c([nH]c5ccccc45)[C@@H]3C[C@H]21 | > 90 | 30.9 | 19.2 | > 90 | inactive | inactive | Active | inactive | Active | Active | Active | inactive | Active | Active | inactive | Non-Toxic | Active | Non-Toxic | inactive | Active
